Assay type: physicochemical
Protocol: Thermogravimetric analysis (TGA) was performed using a Mettler TGA 2 equipped with a 34 position auto-sampler. The instrument was calibrated for energy and temperature using certified Isoderm and Nickel. 10.01 mg of the ceramide NP powder of Example 1 was added to a pinhole aluminum pan and heated from 20° C. to 800° C. at 10° C./min to perform thermogravimetric analysis. The TGA results of the ceramide NP powder of Example 1 are shown in FIG. 7, and the TGA results of the ceramide NP powder of Comparative Example 1 are shown in FIG. 8. The TGA results of ceramide NP powder of Example 1 and the ceramide NP powder of Comparative Example 1 are compared to each other by being arranged to overlap each other in FIG. 9.

| mass remaining | stability compared with ceramide NP powder of Comparative Example 1 | temperature at which decomposition began (no weight loss until then) (TGA, heated from 20° C. to 800° C. at 10° C./min) [°C] | Compound |
| --- | --- | --- | --- |
| about 95% | more stable | 200 | CCCCCCCC/C=C\CCCCCCCC(=O)N[C@@H](CO)[C@H](O)[C@H](O)CCCCCCCCCCCCCC [Example 1, ceramide NP] |
| about 95% | – | – | ceramide NP [Comparative Example 1, reference compound] |
